Test results taken from patent US11192865B2, “Benzosulfonyl compounds” (Vivace Therapeutics, Inc., priority 2017, dated 2021).

Tested on: 8XTBD luciferase reporter
Test: YAP Reporter Assay
Assay type: cell-based
Conditions: Homo sapiens, HEK-293T; HEK293T cells stably transfected with 8XTBD luciferase reporter and pRLTK; 24-hr incubation; starting from 3 μM, 1:3 dilution, 10 points; read-out: Firefly Luciferase IC50
Protocol: HEK293T cells stably transfected with 8XTBD luciferase reporter and pRLTK in 384-well plates were treated with the test compounds, starting from 3 μM (final concentration in assay plate), 1:3 dilution, and 10 points in quadruplicates. Post 24-hr incubation with compounds at 37° C. and 5% CO2, cells were lysed and 8XTBD-driven firefly luciferase and control TK-driven renilla luciferase activities were measured using Promega Dual-Luciferase Reporter Assay System.
Reagents: The reagents used for this study are: DMEM: Invitrogen #11960077, Dual-Glo Luciferase Assay System: Promega-E2980, Puromycin Dihydrochloride: Invitrogen-A1113803, 384-well plate: PerkinElmer-6007480, L-GLUTAMINE: Invitrogen-25030164, Hygromycin B: Invitrogen-10687010, and Penicillin-Streptomycin: Merk-TMS-AB2-C
Media: The media used for this assay were: Culture Medium: DMEM+1 ug/mL puromycin+200 ug/mL hygromycin (with 10% FBS+1 mM L-glutamine); and Assay Medium: DMEM (with 10% FBS+1 mM L-glutamine+1×P/S).
Cell Plating: The appropriate media was warmed at 37° C. by water bath: Culture Medium, Assay Medium, 1* D-PBS, 0.05% trypsin-EDTA. The cells were trypsinized after removing all media, then washed with 1* sterile D-PBS and then with 2 ml 0.05% trypsin-EDTA. The cells were then incubated at RT for one minute. Then 10 ml/75 cm2 flask Assay Medium was added to each flask. Using a 10 ml pipette, the cells were then gently resuspended in the media, until the clumps completely disappeared. The cells were then transferred into 50 ml centrifuge tubes and were centrifuged at 800 rpm for 5 mins. The medium was removed and the cells were resuspended with Assay Medium. An aliquot of cells was used to count the cell density (cells/ml). The cell suspension was then diluted with Assay Medium to a concentration of 6×10^4 cells/ml. 50 ul cells suspension was then plated to 384-well plate (PerkinElmer-6007480), 3×10^3 cells/well and the cells were incubated in an incubator at 37° C., 5% CO2.
Compound Treatment: In the afternoon (incubation of the plate with 3-4 hrs), the test compounds were added by Echo, starting from 3 uM (final concentration in the assay plate), 1:3 dilution, 10 points, quadruplicates. The plate was placed at 37° C., 5% CO2 incubator for 24 hrs.
Detection: The Dual-Glo Luciferase Reagent was prepared by transferring the contents of one bottle of Dual-Glo Luciferase Buffer to one bottle of Dual-Glo Luciferase Substrate to create the Dual-Glo Luciferase Reagent. Mixing was performed by inversion until the substrate was thoroughly dissolved. After mixing, the reagent was aliquoted into 15 ml tubes. In the afternoon (24 hrs post compound treatment), the DMEM+ medium in the 384 well plates were aspirated by Microplate Washer.
Measuring firefly luciferase activity: 20 ul Dual-Glo Luciferase Reagent was added to the 384-well plates. The plates were protected from light to prevent interference with the assay. The plates were shaken for 1 min followed centrifuging plates at 1000 rpm for 30 seconds. After waiting at least 10 minutes, the firefly luminescence was measured by Envision.
Measuring renilla luciferase activity: 20 ul Stop-Glo Reagent was added to the 384-well plates. The plates were shaken for 1 min and then centrifuged at 1000 rpm for 30 seconds. After waiting at least 10 minutes, the renilla luminescence was measured by Envision.
Compound IC50 and maximum inhibition on the firefly luciferase and renilla luciferase activities were reported separately.

IC50 | SMILES
100 to 1000 nM | CNS(=O)(=O)c1ccc(NC2CCCCC2)c(-c2nnn(-c3ccc(F)cc3)n2)c1 [Compound 16, 4-(cyclohexylamino)-3-(2-(4-fluorophenyl)-2H-tetrazol-5-yl)-N-methylbenzenesulfonamide]
≤ 100 nM | CNS(=O)(=O)c1ccc(NC2CCCCC2)c(-c2ccn(C)n2)c1 [Compound 57, 4-(cyclohexylamino)-N-methyl-3-(1-methyl-1H-pyrazol-3-yl)benzenesulfonamide]
≤ 100 nM | CNS(=O)(=O)c1ccc(NC2CCCCC2)c(-c2nnn(Cc3ccccc3F)n2)c1 [Compound 19, 4-(cyclohexylamino)-3-(2-(2-fluorobenzyl)-2H-tetrazol-5-yl)-N-methylbenzenesulfonamide]
≤ 100 nM | CCCn1nnc(-c2cc(S(=O)(=O)NC)ccc2NC2CCCCC2)n1 [Compound 15, 4-(cyclohexylamino)-N-methyl-3-(2-propyl-2H-tetrazol-5-yl)benzenesulfonamide]
≤ 100 nM | CNS(=O)(=O)c1ccc(NC2CCCCC2)c(-c2cn(C)cn2)c1 [Compound 82, 4-(cyclohexylamino)-N-methyl-3-(1-methyl-1H-imidazol-4-yl)benzenesulfonamide]
100 to 1000 nM | CNS(=O)(=O)c1ccc(Nc2cccc(F)c2)c(-c2nnn(C)n2)c1 [Compound 117, 4-((3-fluorophenyl)amino)-N-methyl-3-(2-methyl-2H-tetrazol-5-yl)benzenesulfonamide]
≤ 100 nM | CNS(=O)(=O)c1ccc(NC2CCCCC2)c(-c2nnn(C(C)C)n2)c1 [Compound 26, 4-(cyclohexylamino)-3-(2-isopropyl-2H-tetrazol-5-yl)-N-methylbenzenesulfonamide]
≤ 100 nM | CNS(=O)(=O)c1ccc(Nc2ccc(C(F)(F)F)c(Cl)c2)c(-c2cn(C)cn2)c1 [Compound 148, 4-[3-Chloro-4-(trifluoromethyl)anilino]-N-methyl-3-(1-methylimidazol-4-yl)benzenesulfonamide]
> 3000 nM | CNS(=O)(=O)c1ccc(NC2CCCCC2)c(-c2nnn(C3CCN(S(C)(=O)=O)C3)n2)c1 (centres unmarked) [Compound 43, 4-(cyclohexylamino)-N-methyl-3-(2-(1-(methylsulfonyl)pyrrolidin-3-yl)-2H-tetrazol-5-yl)benzenesulfonamide]
≤ 100 nM | CNS(=O)(=O)c1ccc(Nc2cccc(Cl)c2)c(-c2cn(C)cn2)c1 [Compound 143, 4-(3-Chloroanilino)-N-methyl-3-(1-methylimidazol-4-yl)benzenesulfonamide]
≤ 100 nM | CNS(=O)(=O)c1ccc(Nc2cccc(-c3ccccc3)c2)c(-c2nnn(C)n2)c1 [Compound 131, N-methyl-3-(2-methyltetrazol-5-yl)-4-(3-phenylanilino) benzenesulfonamide]
100 to 1000 nM | CNS(=O)(=O)c1ccc(NC2CCCCC2)c(-c2nnn(C3CN(C(C)C)C3)n2)c1 [Compound 52, 4-(cyclohexylamino)-3-(2-(1-isopropylazetidin-3-yl)-2H-tetrazol-5-yl)-N-methylbenzenesulfonamide]
> 3000 nM | CNS(=O)(=O)c1ccc(NC2CCCCC2)c(-c2nnn(C3CCNCC3)n2)c1 [Compound 30, 4-(cyclohexylamino)-N-methyl-3-(2-(piperidin-4-yl)-2H-tetrazol-5-yl)benzenesulfonamide]
100 to 1000 nM | Cn1cc(-c2cc(S(C)(=O)=O)ccc2NC2CCCCC2)nn1 [Compound 6, N-cyclohexyl-2-(1-methyl-1H-1,2,3-triazol-4-yl)-4-(methylsulfonyl)aniline]
100 to 1000 nM | CNS(=O)(=O)c1ccc(NC2CCCCC2)c(-c2nnn(C3CCCNC3)n2)c1 (centres unmarked) [Compound 74, 4-(cyclohexylamino)-N-methyl-3-(2-(piperidin-3-yl)-2H-tetrazol-5-yl)benzenesulfonamide]
100 to 1000 nM | CNS(=O)(=O)c1ccc(NC2CCCCC2)c(-c2nnn(-c3ccccc3F)n2)c1 [Compound 23, 4-(cyclohexylamino)-3-(2-(2-fluorophenyl)-2H-tetrazol-5-yl)-N-methylbenzenesulfonamide]

IC50 | SMILES
≤ 100 nM | CNS(=O)(=O)c1ccc(NC2CCCCC2)c(-c2ccccn2)c1 [Compound 64, 4-(cyclohexylamino)-N-methyl-3-(pyridin-2-yl)benzenesulfonamide]
> 3000 nM | CS(=O)(=O)c1ccc(NC2CCCCC2)c(-n2cncn2)c1 [Compound 12, N-cyclohexyl-4-(methylsulfonyl)-2-(1H-1,2,4-triazol-1-yl)aniline]
100 to 1000 nM | CNS(=O)(=O)c1ccc(NC2CCCCC2)c(-c2ccncn2)c1 [Compound 69, 4-(cyclohexylamino)-N-methyl-3-(pyrimidin-4-yl)benzenesulfonamide]
1000 to 3000 nM | CNS(=O)(=O)c1ccc(Nc2ccc(-c3ccccc3)cc2)c(-c2nnn(C)n2)c1 [Compound 128, N-methyl-3-(2-methyltetrazol-5-yl)-4-(4-phenylanilino) benzenesulfonamide]
100 to 1000 nM | Cn1nnc(-c2cc(S(C)(=O)=O)ccc2NC2CCCCC2)n1 [Compound 5, N-cyclohexyl-2-(2-methyl-2H-tetrazol-5-yl)-4-(methylsulfonyl)aniline]
≤ 100 nM | CNS(=O)(=O)c1ccc(Nc2cc(Cl)c(Cl)c(Cl)c2)c(-c2cn(C)cn2)c1 [Compound 145, N-methyl-3-(1-methylimidazol-4-yl)-4-(3,4,5-trichloroanilino)benzenesulfonamide]
> 3000 nM | CNS(=O)(=O)c1ccc(NC2CCCCC2)c(-c2nnn(C3CCCN(c4ccccc4)C3)n2)c1 (centres unmarked) [Compound 63, 4-(cyclohexylamino)-N-methyl-3-(2-(1-phenylpiperidin-3-yl)-2H-tetrazol-5-yl)benzenesulfonamide]
100 to 1000 nM | CNS(=O)(=O)c1ccc(NC2CCCCC2)c(-c2n[nH]c(C)n2)c1 [Compound 66, 4-(cyclohexylamino)-N-methyl-3-(5-methyl-1H-1,2,4-triazol-3-yl)benzenesulfonamide]
100 to 1000 nM | CNS(=O)(=O)c1ccc(NC2CCCCC2)c(-c2cc(N)ccn2)c1 [Compound 84, 3-(4-aminopyridin-2-yl)-4-(cyclohexylamino)-N-methylbenzenesulfonamide]
100 to 1000 nM | CNS(=O)(=O)c1ccc(Nc2ccc(C(F)(F)F)cc2)c(-c2nnc(N)o2)c1 [Compound 133, 3-(5-amino-1,3,4-oxadiazol-2-yl)-N-methyl-4-[4-(trifluoromethyl)anilino]benzene-sulfonamide]
1000 to 3000 nM | CS(=O)(=O)c1ccc(NC2CCCCC2)c(-n2cccn2)c1 [Compound 10, N-cyclohexyl-4-(methylsulfonyl)-2-(1H-pyrazol-1-yl)aniline]
≤ 100 nM | Cc1nc(-c2cc(S(C)(=O)=O)ccc2NC2CCCCC2)no1 [Compound 3, N-cyclohexyl-2-(5-methyl-1,2,4-oxadiazol-3-yl)-4-(methylsulfonyl)aniline]
> 3000 nM | CNS(=O)(=O)c1ccc(NC2CCCCC2)c(-c2ncccc2C)c1 [Compound 78, 4-(cyclohexylamino)-N-methyl-3-(3-methylpyridin-2-yl)benzenesulfonamide]
≤ 100 nM | CNc1ccnc(-c2cc(S(=O)(=O)NC)ccc2NC2CCCCC2)c1 [Compound 88, 4-(cyclohexylamino)-N-methyl-3-(4-(methylamino)pyridin-2-yl)benzenesulfonamide]
100 to 1000 nM | CNS(=O)(=O)c1ccc(NC2CCCCC2)c(-c2nnn(C3CCCN(c4cccnc4)C3)n2)c1 (centres unmarked) [Compound 86, 4-(cyclohexylamino)-N-methyl-3-(2-(1-(pyridin-3-yl)piperidin-3-yl)-2H-tetrazol-5-yl)benzenesulfonamide]
> 3000 nM | CNS(=O)(=O)c1ccc(NC2CCCCC2)c(-c2nnn(C3CNC3)n2)c1 [Compound 54, 3-(2-(azetidin-3-yl)-2H-tetrazol-5-yl)-4-(cyclohexylamino)-N-methylbenzenesulfonamide]
